Data published in patent publication US20250017915A1, “METHOD OF TREATING CANCER ASSOCIATED WITH RAS MUTATION” (The Board of Trustees of the University of Illinois, priority 2021, published 2025).

What was measured:
[1] = test system: Panc1 cells; experiment: Cell viability, MTT assay; assay type: cell-based, human; conditions: Panc1, increasing concentrations, with or without 1 μM SGC-CBP30, 48 hours
Method: (§1) For cell growth assays, a fixed number of serum starved tumor cells were seeded into each well of a 24 well plate to reach 10% confluence, the subsequent percent confluence evaluated every 4 hours until the control group reached 100% confluence. For cell viability assays, 2,000-4,000 cells were seeded into each well of a 96-well plate in serum free DMEM. After 16 hours, media/drug was added and cells cultured for 72 hours. At this time, we added 20 ul of a 5 mg/ml 3-(4,5-Dimethyl-2-thiazolyl)-2,5-diphenyl-2H-tetrazolium bromide (MTT) solution to each well […]. After two hours, media was aspirated and crystals dissolved in DMSO and 570 nm absorbance determined by plate reader.
After 48 hours, we examined changes in cell viability via MTT assay.

[2] = test system: Panc1 cells; experiment: RNA sequencing and gene set enrichment analysis; assay type: cell-based, human; conditions: Panc1, 1 μM, 24 hours, RNA sequencing
Method: After 24 hours RNA was extracted using the RNeasy Plus Mini Kit (Qiagen, Hilden, Germany) per the manufacturer's instructions. Quality control, sequencing, and data analysis were performed by Novogene.

[3] = test system: Panc1 cells; experiment: Cell growth assay (percent confluence); assay type: cell-based, human; conditions: Panc1, 1 μM each drug, until DMSO-treated cells reached 100% confluence
Method: as §1

[4] = test system: Panc1 cells; experiment: Western blot, Panc1; assay type: cell-based, human
Method: Cell or tissue lysates were lysed in RIPA buffer (Cell Signaling) followed by sonication. Equal amounts of protein (15-50 μg) were mixed with loading dye, boiled for 8 min, separated on a 4-20% denaturing SDS-PAGE gel and transferred to a PVDF membrane. The membrane was blocked in 5% milk/TBS/0.1% Tween for one hour and incubated with antibodies against pRB, pMEK1, MEK1, pERK1/2, ERK1/2, (Cell Signaling, Danvers, MA), H3K27ac (Active Motif, Carlsbad, CA), KRAS (Novus Bio, Saint Charles, MO), BRD4, EP300 (abcam, Cambridge, MA), or GAPDH (Santa Cruz Biotech, Santa Cruz, CA). The membrane was washed with TBS-0.1% Tween and then incubated with HRP conjugated secondary antibody (Cell Signaling) at room temperature for one hour and rewashed. Protein bands were visualized by an enhanced chemiluminescence method (Thermo Fischer, Waltham, MA) and resolved digitally per the manufacturer's specifications.
(§2) Using these same lysates, we also evaluated the association between BRD4 and EP300/CBP by immunoprecipitation.

[5] = test system: BRD4 and EP300/CBP; experiment: Immunoprecipitation of BRD4 and EP300/CBP, Panc1; assay type: cell-based, human; conditions: Panc1, 1 μM
Method: For immunoprecipitation, cell lysates were collected using IP buffer (25 mM Tris-HCl pH 7.5, 150 mM NaCl, 1 mM EDTA, 0.1% NP-40 and 5% glycerol) with a protease and phosphatase inhibitory cocktail (Cell Signaling), and cell extracts were incubated overnight with the respective antibodies followed by incubation with protein A or G agarose beads for 4 h at 4° C. After washing 5-7 times with lysis buffer, immunocomplexes were resolved using SDS-PAGE and visualized by western blot. All antibodies were compared with isotype specific IgG controls to affirm specificity. All experiments were performed in triplicate unless otherwise specified.
as §2

[6] = test system: Pdx1-Cre×LSL-Kras^G12D×LSL-TP53^R172H+/+ (KPPC) mice; experiment: KPPC mouse model of extremely aggressive PDAC, late intervention; assay type: in vivo; conditions: 5 mg/kg daily IP
From the text: (§3) Nongenic B6 (Wild Type), P48-Cre×LSL-Kras^G12D (KC), Pdx1-Cre×LSL-Kras^G12D×LSL-TP53^R172H+/− (KPC), and Pdx1-Cre×LSL-Kras^G12D×LSL-TP53^R172H+/+ (KPPC) mice were generated as described previously (24). […] Mice were euthanized at 6 months of age and tissues collected for analysis. […] KPC mice were sacrificed when moribund or showing clear signs of health decline e.g. fur loss, weight loss, or lethargy, or for non-survival studies at the fixed endpoint shown in the number of days after enrollment. For studies involving KPPC mice, animals were enrolled either when developing a 0.5 cm, palpable tumor or at 4 weeks of age. […] For euthanasia, animals were deeply anesthetized with isoflurane until unresponsive to toe tap and/or agonal breathing was observed. Thoracotomy served as the primary method of euthanasia and exsanguination the secondary method. For all mouse studies, mice were age matched within 2 weeks and males and females randomized at a 50:50 ratio.
We next conducted a late intervention study using the Pdx1-Cre×LSL-Kras^G12D×LSL-TP53^R172H+/+ (KPPC) model of extremely aggressive PDAC. In our colony, KPPC mice have a median survival of 43 days (N=12) and develop extensive PDAC as early as two weeks of age. We, therefore, enrolled mice as described either when they developed a 0.5 cm tumor or at 4 weeks of age and placed them into one of two treatment groups (N=6/group).

[7] = test system: Pdx1-Cre×LSL-Kras^G12D×LSL-TP53^R172H+/− (KPC) mice; experiment: KPC mouse model of invasive PDAC, survival and endpoint tissue analysis; assay type: in vivo; conditions: XP-524 5 mg/kg daily IP and/or anti-PD-1 200 μg
From the text: as §3
Using these mice, we first conducted an early intervention study in which mice were allowed to develop overt PDAC for a minimum of 15 weeks, at which point 100% of mice in our colony develop focal PDAC. At this time, mice were then randomized at a 50:50 male to female ratio into one of two treatment groups (N=7/group). […]

SMILES | cell viability [1] | KRAS signaling and cell cycle pathways [2] | cell growth [3] | histone acetylation (H3K27ac) [4] | co-precipitation of BRD4 and EP300/CBP [5] | median survival post-enrollment [6] [days] | median survival post-enrollment [7] [days]
Cc1sc2c(c1C)C(c1ccc(Cl)cc1)=N[C@@H](CC(=O)OC(C)(C)C)c1nnc(C)n1-2 [JQ-1] | reduction in cell viability | modest suppression of KRAS and cell cycle pathways | modest growth suppression | compensatory increase in histone acetylation | modestly reduced co-precipitation of BRD4 and EP300/CBP | – | –
COc1ccc(CCc2nc3cc(-c4c(C)noc4C)ccc3n2C[C@H](C)N2CCOCC2)cc1Cl [SGC-CBP30] | – | – | marginal effect on cell growth | – | – | – | –
CCS(=O)(=O)Nc1cc(-c2cn(C)c3c(=O)[nH]ccc23)cc2c1ccn2C(C)(c1ccccn1)c1ccccn1 [XP-524] | – | – | – | – | – | 50 | 108
